Experimental findings from patent US8921372B2, “Inhibitors of hepatitis C virus” (Theravance Biopharma R&D IP, LLC, priority 2010, dated 2014) are described below.

The experiment has as its system HCV genotype 1a replicon cell line (APC89; Huh7.5 cell background). Briefly: HCV Genotype 1a Replicon Assay (NS3-specific protease activity readout). Format: cell-based. Particulars: Hepatitis C virus, 72 hour incubation, read-out: Genotype 1a (pEC50 class, HCV genotype 1a replicon assay) (converted). On the procedure: Assay 2: HCV Genotype 1a Replicon Assay
The HCV genotype 1a replicon cell line was obtained from Apath LLC (APC89; Huh7.5 cell background). This subgenomic replicon contains the N-terminus of the HCV core protein fused to the neomycin-resistance selectable marker. The EMCV IRES lies downstream and drives expression of the non-structural proteins NS3-NS5B. Compound potencies were determined using the NS3-specific protease activity in lysates as a measurement of compound inhibition of replicon levels.
Cells were grown at 37° C. in a 5% CO2 humidified incubator in DMEM (Invitrogen) with 10% FBS (HyClone), 1×NEAA (Invitrogen), 1× Pen-Strep (Invitrogen), and 850 μg/mL G418 (Invitrogen). On day 1 of the assay, cells were plated at 15,000 cells/well in black 96-well tissue culture plates (Costar) in 200 μL media lacking G418. Four hours later, once the cells had adhered, the media was removed and replaced with media (no G418) containing dose-responses of test compounds. Compounds were initially diluted in DMSO and then diluted another 200× in media to bring the final DMSO concentration down to 0.5%. The cells were incubated with test compounds for 48 or 72 hours. At the end of the incubation period, media and compound were removed from the plates.
To determine the NS3-specific protease activity in lysates, the cells were lysed at room temperature in 50 μL/well of 50 mM Hepes pH 7.5, 150 mM NaCl, 15% Glycerol, 0.15% Triton X-100, 10 mM DTT for 20 minutes with shaking. 50 μL of an NS3/4a protease-specific FRET substrate (Anaspec RET S1 Cat#22991) was then added to the wells at a final concentration of 15 μM. The plates were incubated at 37° C. for 20 minutes, which corresponds to a timepoint at which the protease activity is still in the linear phase. Protease activity was determined by measuring fluorescence (Excitation: 340 nm; Emission: 509 nm).
To analyze the data, the fluorescence was plotted vs. the compound concentration, and EC50 values were determined from a 4-parameter robust fit model using GraphPad Prism software.
In general terms: In antiviral work, replicon cells carry a viral genome segment that copies itself.
Take `COC(=O)N[C@H](C(=O)N1CCC[C@H]1c1nc(-c2ccc(-c3ccc(NC(=O)c4ccc(N5C[C@H](C)N(C(=O)C6CC6)C[C@H]5C)nc4)c(C)n3)cc2)c[nH]1)C(C)C` [Example 73]: the EC50 was 1 to 10 nM.
Take `COC(=O)N[C@H](C(=O)N1CCC[C@H]1c1nc(-c2ccc(-c3cc(Cl)c(NC(=O)c4ccc(N5CCN(C(=O)[C@]6(C)CCCN6C(=O)CO)C[C@H]5C)nc4)cc3OC(F)(F)F)cc2)c[nH]1)C(C)C` [Example 27-76]: the EC50 was < 0.1 nM.
Consider `COC(=O)N[C@H](C(=O)N1CCC[C@H]1c1nc(-c2ccc(-c3cc(Cl)c(NC(=O)c4ccc(N5CCN(C(=O)[C@]6(C)CCCN6C(=O)[C@@H](N)C(C)C)C[C@H]5C)nc4)cc3OC(F)(F)F)cc2)c[nH]1)C(C)C` [Example 27-75], for which the EC50 is < 0.1 nM.
Regarding `COC(=O)N[C@H](C(=O)N1CCC[C@H]1c1nc(-c2ccc(-c3cc(F)c(NC(=O)c4ccc(N5CCN(C(=O)NC6CC6)C[C@H]5C)nc4)cc3OC(F)(F)F)cc2)c[nH]1)C(C)C` [Example 27-40], the EC50 was 0.1 to 1 nM.
Next, `CNC(=O)N1CCN(c2ccc(C(=O)Nc3cc(OC(F)(F)F)c(-c4ccc(-c5c[nH]c([C@@H]6CCCN6C(=O)[C@@H](NC(=O)OC)C(C)C)n5)cc4)cc3OC)cn2)[C@H](C)C1` [Example 27-32]: 0.1 to 1 nM; `COC(=O)N[C@H](C(=O)N1CCC[C@H]1c1nc(-c2ccc(-c3ccc(C(=O)Nc4ccc(N5CCN(C(=O)[C@]6(C)CCCN6C(=O)[C@@H](NC(=O)OC)C(C)(C)C)C[C@H]5C)nc4)cc3OC(F)(F)F)cc2)c[nH]1)C(C)C` [Example 70]: 0.1 to 1 nM.
Regarding `COC(=O)N[C@H](C(=O)N1CCC[C@H]1c1nc(-c2ccc(-c3cc(F)c(NC(=O)c4ccc(N5CCN(C(=O)[C@]6(C)CCCN6C(=O)OC(C)(C)C)C[C@H]5C)nc4)cc3OC(F)(F)F)cc2)c[nH]1)C(C)C` [Example 27-8], the EC50 was < 0.1 nM.
The figure for `COC(=O)N[C@H](C(=O)N1CCC[C@H]1c1nc(-c2ccc(-c3cc(F)c(NC(=O)c4ccc(N5CCN(C(=O)[C@]6(C)CCCN6C(=O)[C@H](C)O)C[C@H]5C)nc4)cc3OC(F)(F)F)cc2)c[nH]1)C(C)C` [Example 27-49] is < 0.1 nM; for `COC(=O)N[C@H](C(=O)N1CCC[C@H]1c1nc(-c2ccc(-c3cc(Cl)c(NC(=O)c4ccc(N5C[C@H](C)N(C(=O)[C@]6(C)CCCN6C(=O)CN(C)C)C[C@H]5C)nc4)cc3OC(F)(F)F)cc2)c[nH]1)C(C)C` [Example 28-41] it is < 0.1 nM.
Turning to `COCCNC(=O)N1CCC[C@@]1(C)C(=O)N1CCN(c2ccc(C(=O)Nc3cc(OC(F)(F)F)c(-c4ccc(-c5c[nH]c([C@@H]6CCCN6C(=O)[C@@H](NC(=O)OC)C(C)C)n5)cc4)cc3Cl)cn2)[C@H](C)C1` [Example 27-74], the EC50 was < 0.1 nM.
The figure for `COC(=O)N[C@H](C(=O)N1CCC[C@H]1c1nc(-c2ccc(-c3cc(F)c(NC(=O)c4ccc(N5CCN(C(=O)c6ncccn6)C[C@H]5C)nc4)cc3OC(F)(F)F)cc2)c[nH]1)C(C)C` [Example 27-35] is 0.1 to 1 nM.
Turning to `COC(=O)N[C@H](C(=O)N1CCC[C@H]1c1nc(-c2ccc(-c3cc(F)c(NC(=O)c4ccc(N5CCN(C(=O)[C@]6(C)CCCN6)C[C@H]5C)nc4)cc3OC(F)(F)F)cc2)c[nH]1)C(C)C` [Example 27-9], the EC50 is 1 to 10 nM.
As for `COC(=O)N[C@H](C(=O)N1CCC[C@H]1c1nc(-c2ccc(-c3ccc(C(=O)Nc4ccc(N5CCN(C(=O)[C@]6(C)CCCN6C(=O)[C@@H](NC(=O)OC)C(C)O)C[C@H]5C)nc4)cc3OC(F)(F)F)cc2)c[nH]1)C(C)C` (stereo partly drawn) [Example 67], the EC50 is 0.1 to 1 nM.
For `COC(=O)N[C@H](C(=O)N1CCC[C@H]1c1nc(-c2ccc(-c3cc(OC)c(NC(=O)c4ccc(N5CCN(C(=O)c6c[nH]cn6)C[C@H]5C)nc4)cc3OC(F)(F)F)cc2)c[nH]1)C(C)C` [Example 27-29], the EC50 is 0.1 to 1 nM.
The figure for `COC(=O)N[C@H](C(=O)N1CCC[C@H]1c1nc(-c2ccc(-c3cc(Cl)c(NC(=O)c4ccc(N5CCN(C(=O)[C@]6(C)CCCN6C(=O)c6c[nH]cn6)C[C@H]5C)nc4)cc3OC(F)(F)F)cc2)c[nH]1)C(C)C` [Example 27-71] is < 0.1 nM; for `COC(=O)N[C@H](C(=O)N1CCC[C@H]1c1nc(-c2ccc(-c3ccc(NC(=O)c4ccc(N5CCN(C(=O)[C@H]6CC6(C)C)C[C@H]5C)nc4)cc3OC(F)(F)F)nc2)c[nH]1)C(C)C` [Example 76, {(S)-1-[(S)-2-(4-{6-[4-({6-[(R)-4-((S)-2,2-Dimethyl-cyclopropanecarbonyl)-2-methyl-piperazin-1-yl]-pyridine-3-carbonyl}-amino)-trifluoromethoxyphenyl]-pyridin-3-yl}-1H-imidazol-2-yl)-pyrrolidine-1-carbonyl]-2-methyl-propyl}-carbamic acid methyl ester] it is 0.1 to 1 nM; for `COC(=O)N[C@H](C(=O)N1CCC[C@H]1c1nc(-c2ccc(-c3cc(Cl)c(NC(=O)c4ccc(N5CCN(C(=O)c6c[nH]cn6)C[C@H]5C)nc4)cc3OC(F)(F)F)cc2)c[nH]1)C(C)C` [Example 27-66] it is < 0.1 nM.
As to `CCOc1cc(NC(=O)c2ccc(N3CCN(C(=O)NC)C[C@H]3C)nc2)ccc1-c1ccc(-c2c[nH]c([C@@H]3CCCN3C(=O)[C@@H](NC(=O)OC)C(C)C)n2)cc1` [Example 23], the EC50 is 0.1 to 1 nM.
For the compound `COCCNC(=O)N1CCC[C@@]1(C)C(=O)N1C[C@@H](C)N(c2ccc(C(=O)Nc3cc(OC(F)(F)F)c(-c4ccc(-c5c[nH]c([C@@H]6CCCN6C(=O)[C@@H](NC(=O)OC)C(C)C)n5)cc4)cc3Cl)cn2)C[C@@H]1C` [Example 28-43], the EC50 was < 0.1 nM.
`COC(=O)N[C@H](C(=O)N1CCC[C@H]1c1nc(-c2ccc(-c3ccc(NC(=O)c4ccc(N5C[C@H](C)N(C(=O)c6c[nH]cn6)C[C@H]5C)nc4)c(C)n3)cc2)c[nH]1)C(C)C` [Example 75]: the EC50 is 1 to 10 nM.
`CCOc1cc(NC(=O)c2ccc(N3CCN(C(=O)c4c[nH]cn4)C[C@H]3C)nc2)ccc1-c1ccc(-c2c[nH]c([C@@H]3CCCN3C(=O)[C@@H](NC(=O)OC)C(C)C)n2)cc1` [Example 24]: the EC50 was 0.1 to 1 nM.
`CNC(=O)C1CCC[C@@]1(C)C(=O)N1C[C@@H](C)N(c2ccc(C(=O)Nc3cc(OC(F)(F)F)c(-c4ccc(-c5c[nH]c([C@@H]6CCCN6C(=O)[C@@H](NC(=O)OC)C(C)C)n5)cc4)cc3Cl)cn2)C[C@@H]1C` (stereo partly drawn) [Example 28-42]: the EC50 is < 0.1 nM.
For `CNC(=O)N1C[C@@H](C)N(c2ccc(C(=O)Nc3ccc(-c4ccc(-c5c[nH]c([C@@H]6CCCN6C(=O)[C@@H](NC(=O)OC)C(C)C)n5)cc4)nc3C)cn2)C[C@@H]1C` [Example 74], the EC50 is 1 to 10 nM.
`COC(=O)N[C@H](C(=O)N1CCC[C@H]1c1nc(-c2ccc(-c3cc(F)c(NC(=O)c4ccc(N5CCN(C(=O)NC(C)C)C[C@H]5C)nc4)cc3OC(F)(F)F)cc2)c[nH]1)C(C)C` [Example 27-39]: the EC50 is 0.1 to 1 nM.
